Assay results published in patent publication US11498921B1, “Pyrimidine or pyridine compounds, preparation method therefor and pharmaceutical uses thereof” (INVENTISBIO CO., LTD., priority 2014, dated 2022).
Structures can show the parent of a compound that is named as a salt.

Legend:
Format in all cases: cell-based
[1] = system: NCI-H1975 cells (T790M and L858R EGFR mutations); test: Cell growth inhibition (Cell Titer-Glo), NCI-H1975; conditions: Homo sapiens, 72 hours drug treatment, 0.03 nM to 100 nM
Method: (§1) Experiment of Cell Growth Inhibition
(§2) The LoVo cell line is a wild-type EGFR human colon adenocarcinoma cell, and is grown in F-12K medium (GIBCO) containing 10% FBS. NCI-H2073 cell line is a wild-type EGFR human non-small cell lung cancer cell and grown in ACL-4 medium containing 10% FBS. The growth rate of NCI-H1975, LoVo and NCI-H2073 cells was detected by Cell Titer-Glo luminescence activity assay (Promega #G7572).
(§3) Briefly, trypsin was used for digesting cells in the logarithmic growth phase. 96-well plates were seeded with 50,000 Lovo or NCI-H2073 cells, 2500-3000 NCI-H1975 cells per well and provided with blank control wells containing only nutrient solution without inoculated cell, and the plates were incubated in a humidified incubator with 5% CO2 at 37° C. […] The concentration of test drug in NCI-H1975 cells was from 0.03 nM to 100 nM, and that in LoVo and NCI-H2073 cells was from 3 nM to 10 μM. The cell culture medium containing the different compounds was then added to a 96-well cell plate in which one cell control well comprising cell culture medium only containing DMSO was provided. After a drug treatment for 72 hours, the cell plates were removed from the incubator and allowed to stand at room temperature for 30 minutes. Next, Cell Titer-Glo reagent was added to the wells and the 96-well cell plate was shaken at room temperature for 10 minutes to induce cell lysis. The 96-well cell plate was placed on the bench for 2 minutes to stabilize the luminescence signal. Finally, the 96-well cell plate was placed in an EnVision Multi-labeled Microplate Reader (PerkinElmer), and the signal was read with an integral time of 0.5 seconds.
(§4) Formula: Percentage of cell growth inhibition %=(maximum signal−compound signal)/(maximum signal−minimum signal)*100%
(§5) The maximal signal was obtained from the cell control well which were treated with the DMSO solution having no any compound;
(§6) The compound signal was obtained from the drug-treated cell wells to which the compound was added;
(§7) The minimum signal was obtained from a blank control well to which no cells and only nutrient solution was added.

[2] = system: LoVo cells (wild-type EGFR human colon adenocarcinoma); test: Cell growth inhibition (Cell Titer-Glo), LoVo; conditions: 72 hours drug treatment, 3 nM to 10 μM
Method: as §1, §2, §3, §4, §5, §6, §7

[3] = system: NCI-H2073 cells (wild-type EGFR human non-small cell lung cancer); test: Cell growth inhibition (Cell Titer-Glo), NCI-H2073; conditions: 72 hours drug treatment, 3 nM to 10 μM
Method: as §1
as §2, with “The compounds that were preferentially targeted for EGFR targeting certain mutations and relatively weak in wild-type EGFR were identified by determining the growth of cells. The NCI-H1975 cell line is a human non-small cell lung cancer cell containing T790M and L858R EGFR mutations, and the cell is grown in RPMI-1640 medium (GIBCO) containing 10% fetal bovine serum (FBS). The LoVo” for “The LoVo”
Briefly, trypsin was used for digesting cells in the logarithmic growth phase. 96-well plates were seeded with 50,000 Lovo or NCI-H2073 cells, 2500-3000 NCI-H1975 cells per well and provided with blank control wells containing only nutrient solution without inoculated cell, and the plates were incubated in a humidified incubator with 5% CO2 at 37° C. After 24 hours, the DMSO solution of the different compounds was diluted with a cell culture medium at 3.16 times per time to eight different concentrations from high to low levels. The concentration of test drug in NCI-H1975 cells was from 0.03 nM to 100 nM, and that in LoVo and NCI-H2073 cells was from 3 nM to 10 μM. The cell culture medium containing the different compounds was then added to a 96-well cell plate in which one cell control well comprising cell culture medium only containing DMSO was provided. After a drug treatment for 72 hours, the cell plates were removed from the incubator and allowed to stand at room temperature for 30 minutes. Next, Cell Titer-Glo reagent was added to the wells and the 96-well cell plate was shaken at room temperature for 10 minutes to induce cell lysis. The 96-well cell plate was placed on the bench for 2 minutes to stabilize the luminescence signal. Finally, the 96-well cell plate was placed in an EnVision Multi-labeled Microplate Reader (PerkinElmer), and the signal was read with an integral time of 0.5 seconds.
as §4, §5, §6, §7

Row | IC50 [1] [nM] | IC50 [2] [nM] | IC50 [3] [nM] | SMILES
1 | 5.5 | 2340 | 435 | C=CC(=O)Nc1cc(Nc2nccc(-c3cn(CC)c4ccccc34)n2)c(OC)cc1N(C)CCN(C)C [48. (HCl)n]
2 | 113 | 1940 | 870 | C=CC(=O)Nc1cc(Nc2nccc(-c3cn(C)c4ccccc34)n2)c(OC)cc1N(C)CCN(CC)CC [8. MsOH]
3 | 8.1 | 4660 | 260 | C=CC(=O)Nc1cc(Nc2nccc(N3CC(C)(C)c4ccccc43)n2)c(OC)cc1N(C)CCN(C)C [37. (MsOH)3]
4 | 14 | 2860 | 690 | C=CC(=O)Nc1cc(Nc2nccc(-c3cn(C)c4ccccc34)n2)c(OC)cc1N(C)CCN1CCC(O)C1 (stereo not shown) [53. (HCl)n]
5 | 13 | 2060 | 1130 | C=CC(=O)Nc1cc(Nc2nccc(-c3cn(C)c4ccccc34)n2)c(OC)cc1N(CC)CCN(C)C [9. (MsOH)2]
6 | 15 | 4330 | 410 | C=CC(=O)Nc1cc(Nc2nccc(N3CCOc4ccccc43)n2)c(OC)cc1N(C)CCN(C)C [36. (MsOH)3]
7 | 1.4 | 4070 | 110 | [2H]C([2H])([2H])Oc1cc(N(C)CCN(C)C)c(NC(=O)C=C)cc1Nc1nccc(-n2c(=O)n(C)c3ccccc32)n1 [60. (HCl)n]
8 | 14 | 870 | 280 | C=CC(=O)Nc1cc(Nc2cc(-c3cn(C)c4ccccc34)ncn2)c(OC)cc1N(C)CCN(C)C [44. (HCl)n]
9 | 5.2 | 6100 | 220 | C=CC(=O)Nc1cc(Nc2nccc(-c3nc(C)c4ccccn34)n2)c(OC)cc1N(C)CCN(C)C [52. (HCl)n]
10 | 8.6 | 2570 | 500 | C=CC(=O)Nc1cc(Nc2nccc(-n3cc(C)c4ccccc43)n2)c(OC)cc1N(C)CCN(C)C [4. (MsOH)3]
11 | 6.1 | 2300 | 474 | C=CC(=O)Nc1cc(Nc2nccc(-n3nnc4ccccc43)n2)c(OC)cc1N(C)CCN(C)C [2. (MsOH)3]
12 | 9.2 | > 10000 | 290 | C=CC(=O)Nc1cc(Nc2nccc(-n3[nH]c(=O)c4ccccc43)n2)c(OC)cc1N(C)CCN(C)C [50. (HCl)n]
13 | 7.4 | > 10000 | 340 | C=CC(=O)Nc1cc(Nc2nccc(-c3cccc4c3ccn4C)n2)c(OC)cc1N(C)CCN(C)C [41. (HCl)n]
14 | 5.4 | 2260 | 230 | C=CC(=O)Nc1cc(Nc2nccc(-c3nn(C)c4ccccc34)n2)c(OC)cc1N(C)CCN(C)C [1. (HCl)n]
15 | 36 | 4180 | > 10000 | C=CC(=O)Nc1cc(Nc2nccc(-n3ccc(=O)c4ccccc43)n2)c(OC)cc1N(C)CCN(C)C [56. (HCl)n]
16 | 15.7 |  | 543 | C=CC(=O)Nc1cc(Nc2nccc(-c3cn(CC(F)F)c4ccccc34)n2)c(OC)cc1N(C)CCN(C)C [105. (MsOH)2]
17 | 2.7 |  | 282 | [2H]C([2H])([2H])N(CCN(C)c1cc(OC)c(Nc2nccc(-c3cn(CC)c4ccccc34)n2)cc1NC(=O)C=C)C([2H])([2H])[2H] [72. (MsOH)3]
18 | 0.8 |  | 63 | [2H]C([2H])([2H])N(CCN(C)c1cc(OC)c(Nc2nccc(-n3c(=O)n(CC)c4ccccc43)n2)cc1NC(=O)C=C)C([2H])([2H])[2H] [69. (MsOH)3]
19 | 1.3 | 4180 | 120 | [2H]C([2H])([2H])N(CCN(C)C)c1cc(OC)c(Nc2nccc(-n3c(=O)n(C)c4ccccc43)n2)cc1NC(=O)C=C [59. (HCl)n]

Row | IC50 [1] [nM] | IC50 [2] [nM] | IC50 [3] [nM] | SMILES
20 | 1.5 |  | 29 | [2H]C([2H])([2H])N(CCN(C)c1cc(OC)c(Nc2nccc(-n3c(=O)[nH]c4ccccc43)n2)cc1NC(=O)C=C)C([2H])([2H])[2H] [61. (HCl)n]
21 | 0.4 |  | 64 | [2H]C([2H])([2H])N(CCN(C)C)c1cc(OC)c(Nc2nccc(-c3cn(S(C)(=O)=O)c4ccccc34)n2)cc1NC(=O)C=C [71. (MsOH)2]
22 | 0.8 | 3390 | 18 | C=CC(=O)Nc1cc(Nc2nccc(-n3c(=O)[nH]c4ccccc43)n2)c(OC)cc1N(C)CCN(C)C [39. (MsOH)3]
23 | 4.5 |  | 268 | C=CC(=O)Nc1cc(Nc2nccc(-n3c(=O)n(CC(F)F)c4ccccc43)n2)c(OC)cc1N(C)CCN(C)C [109. (MsOH)2]
24 | 6 |  | 310 | [2H]C([2H])([2H])N(CCN(C)c1cc(OC)c(Nc2nccc(-n3nnc4ccccc43)n2)cc1NC(=O)C=C)C([2H])([2H])[2H] [64. (HCl)n]
25 | 4.8 |  | 410 | [2H]C([2H])([2H])N(CCN(C)c1cc(OC)c(Nc2nccc(-n3cc(C)c4ccccc43)n2)cc1NC(=O)C=C)C([2H])([2H])[2H] [63. (HCl)n]
26 | 1.9 |  | 151 | [2H]C([2H])([2H])n1c(=O)n(-c2ccnc(Nc3cc(NC(=O)C=C)c(N(C)CCN(C)C)cc3OC)n2)c2ccccc21 [65. (MsOH)2]
27 | 5.4 | 4230 | 335 | C=CC(=O)Nc1cc(Nc2nccc(N3CCc4ccccc43)n2)c(OC)cc1N(C)CCN(C)C [5. (MsOH)3]
28 | 26.5 |  | 595 | C=CC(=O)Nc1cc(Nc2nccc(-c3nn(C(C)C)c4ccccc34)n2)c(OC)cc1N(C)CCN(C)C [113. (MsOH)2]
29 | 7.4 |  | 185 | C=CC(=O)Nc1cc(Nc2nccc(-n3c(=O)n(C4CC4)c4ccccc43)n2)c(OC)cc1N(C)CCN(C)C [107. (MsOH)2]
30 | 6.4 |  | 170 | C=CC(=O)Nc1cc(Nc2nccc(-c3cn(S(=O)(=O)C(C)C)c4ccccc34)n2)c(OC)cc1N(C)CCN(C)C [102. (MsOH)2]
31 | 20.5 | > 10000 | > 10000 | C=CC(=O)Nc1cc(Nc2nccc(-c3cn(C)c4ccccc34)n2)c(OC)cc1N1CC(N2CCC2)C1 [Example 22]
32 | 13 | 2520 | 2520 | C=CC(=O)Nc1cc(Nc2nccc(-c3cn(C)c4ccccc34)n2)c(OC)cc1OCCN(C)C [29. (MsOH)2]
33 | 9.9 | 2170 | 760 | C=CC(=O)Nc1cc(Nc2nccc(-c3cn(C)c4ccccc34)n2)c(OC)cc1N(C)CCN(C)CC [7. (MsOH)3]
34 | 13.1 |  | 300 | C=CC(=O)Nc1cc(Nc2nccc(-c3cn(S(=O)(=O)C4CC4)c4ccccc34)n2)c(OC)cc1N(C)CCN(C)C [103. (MsOH)2]
35 | 1.6 |  | 116 | [2H]C([2H])([2H])N(CCN(C)c1cc(OC)c(Nc2nccc(-n3c(=O)n(C)c4ccccc43)n2)cc1NC(=O)C=C)C([2H])([2H])[2H] [58. (HCl)n]
36 | 3.6 |  | 201 | C=CC(=O)Nc1cc(Nc2nccc(-n3c(=O)n(CC)c4ccccc43)n2)c(OC)cc1N(C)CCN(C)C [66. (MsOH)3]
37 | 100 |  | 5420 | C=CC(=O)Nc1cc(Nc2nccc(-n3cc(S(C)(=O)=O)c4ccccc43)n2)c(OC)cc1N(C)CCN(C)C [112. (MsOH)2]
38 | 81.7 |  | 4100 | C=CC(=O)Nc1cc(Nc2nccc(-c3cncc4ccccc34)n2)c(OC)cc1N(C)CCN(C)C [Example 67]
